13 molecules from patent US20240261297A1, “ANTI-CDK INHIBITORS FOR CANCER TREATMENT” (St. John's Cancer Institute, priority 2021, published 2024) can be followed below.

Data set [1] in a line: Snapshot plasma pharmacokinetics in mice. It counts as in vivo. As to the method:
Evaluation of pharmacokinetic (PK) parameters and efficacy of I-3 in a xenograft model was carried out in mice. […] Briefly, mice were treated with 5 mg/kg of 1-3 or merioline-3. Plasma was then collected at different time points and measured for drug concentration. […] PK parameters of I-3 was also compared to a panel of CDK inhibitors (Table 13). […] Likewise, Ribociclib has a better Cmax than I-3, but it is primarily a CDK4/6 inhibitor.

Data set [2] deals with CDK1/cyclin B (Homo sapiens, UniProt P06493). Nature of the data set: Radioisotope-based protein kinase assay. It counts as biochemical. Conditions: 10 μM ATP, 3-fold dilution from 10 μM. As to the method:
(§1) A series of test compounds were selected for initial screening against CDK isoforms. Protein kinase assays were performed with gold standard radioisotope-based assay formats to measuring enzyme activity remaining in presence and absence of inhibitor.

Data set [3] has as its target CDK2/cyclin E (Homo sapiens, UniProt P24941). Nature of the data set: Radioisotope-based protein kinase assay. The following applies: 10 μM ATP, 3-fold dilution from 10 μM. Type of data set: biochemical. On the procedure: as §1
Data set [4] deals with CDK4/cyclin D1 (Homo sapiens, UniProt P11802). Nature of the data set: Radioisotope-based protein kinase assay. Type of data set: biochemical. Conditions: 10 μM ATP, 3-fold dilution from 10 μM. On the procedure:
as §1

For data set [5], the system named is MDA-MB-468. The data set is described as follows: Cell viability in breast cancer cell lines. It counts as cell-based. The following applies: MDA-MB-468, 72 hours, Table 6, read-out: Cell viability by CellTiter Glo IC50. The text has this: (§2) Tables 5 and 6 show assessment of in vitro efficacy of I-3 in a panel of breast cancer cell lines.
The test system of data set [6] is MCF-10A. The data set is described as follows: Cell viability in breast cell lines. It counts as cell-based. The following applies: MCF-10A, 72 hours, Table 6, read-out: Cell viability by CellTiter Glo IC50.
From the text: as §2

Data set [7] addresses CDK1/cyclin A (Homo sapiens, UniProt P06493). The data set is described as follows: Radioisotope-based protein kinase assay. Type of data set: biochemical. The following applies: 10 μM ATP, 3-fold dilution from 10 μM. As to the method:
as §1

In data set [8] the target is CDK2/cyclin A (Homo sapiens, UniProt P24941). Nature of the data set: Radioisotope-based protein kinase assay. It counts as biochemical. Conditions: 10 μM ATP, 3-fold dilution from 10 μM. As to the method:
as §1

The target in data set [9] is CDK6/cyclin D1 (Homo sapiens, UniProt Q00534). The data set is described as follows: Radioisotope-based protein kinase assay. Type of data set: biochemical. The following applies: 10 μM ATP, 3-fold dilution from 10 μM. On the procedure:
as §1

Data set [10] concerns the target CDK7/cyclin H (Homo sapiens, UniProt P50613). The data set is described as follows: Radioisotope-based protein kinase assay. It counts as biochemical. Conditions: 10 μM ATP, 3-fold dilution from 10 μM. As to the method:
as §1

Data set [11] addresses CDK9/cyclin T1 (Homo sapiens, UniProt P50750). The data set is described as follows: Radioisotope-based protein kinase assay. It counts as biochemical. The following applies: 10 μM ATP, 3-fold dilution from 10 μM. As to the method: as §1
Data set [12] concerns the target CKD9/Cyclin H (Homo sapiens, UniProt P50750). The data set is described as follows: Biochemical profile against CDKs and binding partners (Table 3). On the procedure: as §1
The test system of data set [13] is caspase 3/7 in MDA-MB-468 cells. The data set is described as follows: Caspase Glo 3/7 activity assay in MDA-MB-468 cells. It counts as cell-based. The following applies: 24 hours. As to the method: Further anti-proliferative effect of 1-3 was evaluated in the TNBC cell line MDA-MB-468 based on biomarker (CDK2) inhibition. […] The mechanistic cell cycle block is aligned with biomarker. In addition, Caspase Glo 3/7 activation was tested to confirm the sub-G1 (apoptotic) arrest in cell cycle.

For data set [14], the system named is PLC/PRF/5 cells. Nature of the data set: Cell viability of HCC cells by CellTiter Glo assay. Type of data set: cell-based. Conditions: 72 hours. On the procedure: FIG. 5 is a graph showing cell viability of hepatocellular carcinoma (HCC) cell lines treated with I-3 for 72 hours, assessed by CellTiter Glo assay, with the control level of cells considered 100%.
I-3 was also tested for efficacy on hepatocellular carcinoma (HCC) cell lines. Cell viability was measured by CellTiter Glo assay (FIG. 5 and Table 8).
For orientation: ATP-based viability assays read luminescence as a measure of living cells.

Data set [15] concerns caspase 3/7 in PLC/PRF/5 cells. The data set is described as follows: Caspase Glo 3/7 activity assay in PLC/PRF/5 cells. It counts as cell-based.
The target in data set [16] is CDK5/p35 (Homo sapiens, UniProt Q00535). Nature of the data set: Radioisotope-based protein kinase assay. It counts as biochemical. The following applies: Table 2. On the procedure:
as §1
The activity of compound I-3 was compared to that of a panel of CDKs and their respective binding partners (Tables 2 and 3).

Where [17] appears, read: PO 5 mg/kg, cassette dosing, plasma.

pIC50: −log10 of the molar value. Where two headings read alike, the source gives them in different places.

CDK4/cyclin D1, sequence (P11802 whole entry): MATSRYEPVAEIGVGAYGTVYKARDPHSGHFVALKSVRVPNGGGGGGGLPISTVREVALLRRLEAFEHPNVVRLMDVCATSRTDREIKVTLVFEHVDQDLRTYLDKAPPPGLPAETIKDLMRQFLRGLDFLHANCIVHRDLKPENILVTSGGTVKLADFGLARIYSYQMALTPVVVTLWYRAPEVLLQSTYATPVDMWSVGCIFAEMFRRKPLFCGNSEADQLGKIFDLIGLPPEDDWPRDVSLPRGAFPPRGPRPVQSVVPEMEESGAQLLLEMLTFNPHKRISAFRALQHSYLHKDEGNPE
CDK4/cyclin D1, sequence (P24385 whole entry partner): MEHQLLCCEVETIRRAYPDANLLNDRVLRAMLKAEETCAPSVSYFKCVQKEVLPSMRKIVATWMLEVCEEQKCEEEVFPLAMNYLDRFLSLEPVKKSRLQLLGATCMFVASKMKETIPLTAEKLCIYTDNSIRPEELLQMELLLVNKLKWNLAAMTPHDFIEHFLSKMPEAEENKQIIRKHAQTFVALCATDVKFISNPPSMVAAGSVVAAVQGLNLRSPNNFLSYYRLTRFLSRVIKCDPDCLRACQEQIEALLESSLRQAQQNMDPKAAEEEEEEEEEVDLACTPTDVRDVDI
CDK9/cyclin T1, sequence (P50750 whole entry): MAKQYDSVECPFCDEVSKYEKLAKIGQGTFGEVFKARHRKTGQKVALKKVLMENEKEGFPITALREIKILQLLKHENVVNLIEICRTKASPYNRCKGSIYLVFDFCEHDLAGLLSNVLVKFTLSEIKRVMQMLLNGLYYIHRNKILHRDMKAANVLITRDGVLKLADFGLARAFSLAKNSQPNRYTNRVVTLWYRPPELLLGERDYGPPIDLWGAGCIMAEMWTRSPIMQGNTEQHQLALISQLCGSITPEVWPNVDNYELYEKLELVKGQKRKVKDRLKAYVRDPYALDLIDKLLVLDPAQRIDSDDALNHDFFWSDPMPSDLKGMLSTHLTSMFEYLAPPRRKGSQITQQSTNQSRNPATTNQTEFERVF
CDK9/cyclin T1, sequence (O60563 whole entry partner): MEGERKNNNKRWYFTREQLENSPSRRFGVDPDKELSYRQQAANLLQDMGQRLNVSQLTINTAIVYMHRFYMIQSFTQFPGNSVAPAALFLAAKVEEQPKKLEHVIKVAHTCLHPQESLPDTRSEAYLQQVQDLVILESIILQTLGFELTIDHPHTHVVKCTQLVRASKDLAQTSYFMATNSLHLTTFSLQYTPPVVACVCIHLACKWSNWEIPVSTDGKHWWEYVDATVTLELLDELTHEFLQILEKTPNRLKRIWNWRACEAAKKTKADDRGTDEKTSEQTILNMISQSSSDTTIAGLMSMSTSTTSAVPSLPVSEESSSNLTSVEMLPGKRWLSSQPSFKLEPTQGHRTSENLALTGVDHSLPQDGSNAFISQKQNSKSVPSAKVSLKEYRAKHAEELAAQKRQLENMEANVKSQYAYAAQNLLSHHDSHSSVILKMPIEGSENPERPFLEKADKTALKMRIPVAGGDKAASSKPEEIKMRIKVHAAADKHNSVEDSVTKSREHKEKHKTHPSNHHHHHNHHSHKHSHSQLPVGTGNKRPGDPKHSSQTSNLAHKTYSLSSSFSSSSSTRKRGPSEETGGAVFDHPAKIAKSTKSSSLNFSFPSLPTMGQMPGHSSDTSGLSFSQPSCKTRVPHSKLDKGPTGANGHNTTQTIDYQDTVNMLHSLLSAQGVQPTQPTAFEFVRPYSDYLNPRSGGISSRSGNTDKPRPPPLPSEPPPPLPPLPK
CDK1/cyclin B, sequence (P06493 whole entry, canonical isoform): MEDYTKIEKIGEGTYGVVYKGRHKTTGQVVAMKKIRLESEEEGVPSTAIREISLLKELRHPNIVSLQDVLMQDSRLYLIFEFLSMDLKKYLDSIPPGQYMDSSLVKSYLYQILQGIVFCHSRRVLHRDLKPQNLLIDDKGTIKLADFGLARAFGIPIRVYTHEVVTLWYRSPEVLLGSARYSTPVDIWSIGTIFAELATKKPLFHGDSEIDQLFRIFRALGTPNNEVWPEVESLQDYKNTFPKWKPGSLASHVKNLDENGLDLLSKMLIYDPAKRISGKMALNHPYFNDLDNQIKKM
CDK1/cyclin B, sequence (P14635 whole entry partner, canonical isoform): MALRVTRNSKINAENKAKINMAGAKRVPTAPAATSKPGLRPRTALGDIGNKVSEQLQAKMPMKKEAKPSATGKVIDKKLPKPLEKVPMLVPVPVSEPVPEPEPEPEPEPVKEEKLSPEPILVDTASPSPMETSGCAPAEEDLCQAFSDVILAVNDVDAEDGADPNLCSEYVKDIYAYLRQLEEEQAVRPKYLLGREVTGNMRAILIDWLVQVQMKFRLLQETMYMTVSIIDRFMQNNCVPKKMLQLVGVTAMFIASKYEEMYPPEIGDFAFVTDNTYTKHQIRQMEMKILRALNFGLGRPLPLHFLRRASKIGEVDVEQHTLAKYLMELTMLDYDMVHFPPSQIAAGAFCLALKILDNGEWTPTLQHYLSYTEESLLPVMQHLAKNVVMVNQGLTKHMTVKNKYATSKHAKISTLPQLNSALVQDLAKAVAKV
CDK6/cyclin D1, sequence (Q00534 whole entry): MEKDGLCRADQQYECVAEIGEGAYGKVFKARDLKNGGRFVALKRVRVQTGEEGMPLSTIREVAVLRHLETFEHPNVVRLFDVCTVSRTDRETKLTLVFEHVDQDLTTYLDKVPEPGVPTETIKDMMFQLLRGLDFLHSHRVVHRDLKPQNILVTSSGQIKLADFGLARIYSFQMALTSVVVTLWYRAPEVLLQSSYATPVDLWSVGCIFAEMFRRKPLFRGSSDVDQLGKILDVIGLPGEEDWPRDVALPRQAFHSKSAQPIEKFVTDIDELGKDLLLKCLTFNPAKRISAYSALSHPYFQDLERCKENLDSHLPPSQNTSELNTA
CDK6/cyclin D1, sequence (P24385 whole entry partner): as the sequence (P24385 whole entry partner) above
CKD9/Cyclin H, sequence (P50750 whole entry): as the sequence (P50750 whole entry) above
CDK7/cyclin H, sequence (P50613 whole entry): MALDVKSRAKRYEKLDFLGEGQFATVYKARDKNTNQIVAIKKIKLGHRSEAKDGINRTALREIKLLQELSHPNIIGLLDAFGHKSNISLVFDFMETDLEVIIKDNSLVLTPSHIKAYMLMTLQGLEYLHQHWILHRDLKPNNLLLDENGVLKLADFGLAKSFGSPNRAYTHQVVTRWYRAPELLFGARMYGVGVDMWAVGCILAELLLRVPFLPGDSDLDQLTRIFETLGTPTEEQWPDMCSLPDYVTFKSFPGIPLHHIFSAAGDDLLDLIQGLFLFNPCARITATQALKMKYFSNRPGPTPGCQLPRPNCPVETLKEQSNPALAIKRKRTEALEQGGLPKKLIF
CDK7/cyclin H, sequence (P51946 whole entry partner): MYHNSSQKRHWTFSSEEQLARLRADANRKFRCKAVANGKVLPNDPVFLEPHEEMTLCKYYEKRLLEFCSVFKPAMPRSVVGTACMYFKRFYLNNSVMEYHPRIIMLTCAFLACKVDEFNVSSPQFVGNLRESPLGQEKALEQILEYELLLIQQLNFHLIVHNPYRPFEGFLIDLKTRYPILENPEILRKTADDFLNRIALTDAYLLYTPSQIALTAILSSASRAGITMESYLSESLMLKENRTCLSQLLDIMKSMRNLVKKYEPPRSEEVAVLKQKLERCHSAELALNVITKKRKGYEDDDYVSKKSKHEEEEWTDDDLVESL
CDK7/cyclin H, sequence (P51948 whole entry partner): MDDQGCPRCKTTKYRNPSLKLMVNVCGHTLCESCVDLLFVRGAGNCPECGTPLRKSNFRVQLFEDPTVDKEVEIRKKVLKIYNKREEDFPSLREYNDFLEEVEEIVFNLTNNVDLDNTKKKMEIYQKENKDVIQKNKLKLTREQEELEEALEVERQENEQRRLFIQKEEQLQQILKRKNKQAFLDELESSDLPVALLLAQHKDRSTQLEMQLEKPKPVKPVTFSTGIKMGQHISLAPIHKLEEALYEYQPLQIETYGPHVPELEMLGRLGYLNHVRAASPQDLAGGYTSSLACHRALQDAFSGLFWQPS
CDK5/p35, sequence (Q00535 whole entry): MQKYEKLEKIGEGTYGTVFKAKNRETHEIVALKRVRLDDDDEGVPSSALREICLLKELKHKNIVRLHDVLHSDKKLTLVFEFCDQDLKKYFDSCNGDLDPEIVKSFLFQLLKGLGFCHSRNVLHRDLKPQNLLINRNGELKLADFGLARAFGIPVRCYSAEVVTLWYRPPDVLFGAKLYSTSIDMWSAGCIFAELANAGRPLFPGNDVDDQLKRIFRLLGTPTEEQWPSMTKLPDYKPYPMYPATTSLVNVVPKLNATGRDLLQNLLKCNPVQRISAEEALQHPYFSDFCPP
CDK5/p35, sequence (Q15078 whole entry partner): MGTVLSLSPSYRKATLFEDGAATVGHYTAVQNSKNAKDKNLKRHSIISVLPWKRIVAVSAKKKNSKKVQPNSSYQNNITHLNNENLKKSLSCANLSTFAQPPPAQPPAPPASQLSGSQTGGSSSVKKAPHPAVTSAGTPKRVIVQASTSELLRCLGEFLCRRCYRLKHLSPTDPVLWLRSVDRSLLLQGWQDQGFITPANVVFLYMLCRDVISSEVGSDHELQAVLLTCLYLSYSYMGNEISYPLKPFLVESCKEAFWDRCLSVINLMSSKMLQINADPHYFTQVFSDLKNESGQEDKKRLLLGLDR

For orientation: Tmax means the time at which the peak concentration occurs. A word on the Cmax: it is the maximum level reached in the sampled fluid or tissue. As for `CCN1CCN(Cc2ccc(Nc3ncc(F)c(-c4cc(F)c5nc(C)n(C(C)C)c5c4)n3)nc2)CC1` [Abemaciclib], the Tmax in data set [1] (mouse, in vivo) stood at 5.5 h. In [1] (mouse, in vivo, AUCinf), this molecule had an AUC(0-inf) of 613 ng·h/mL. This molecule also registered a Cmax in data set [1] (mouse, in vivo, Cmax) of 107 ng/mL.

By pIC50 is commonly meant the IC50 on a negative log10 scale, so that one unit is a factor of ten. In the case of `CC[C@H](Nc1nc(NCc2cnc(C)cc2C)c2ncn(C(C)C)c2n1)[C@@H](C)O` [CYC065, reference compound], the pIC50 in data set [2] was 6.24; in data set [3], 8.30; in [4], 7.68; in [5] (Homo sapiens) it was 6.42; in [6] (Homo sapiens), 6.40.

Take `Nc1nccc(-c2c[nH]c3nccc(Oc4ccccc4)c23)n1` [I-1, 4-(4-phenoxy-1H-pyrrolo[2,3-b]pyridin-3-yl)pyrimidin-2-amine]: the pIC50 is 8.52 in data set [7]; 8.40 in data set [2]; 8.52 in [8]; 8.70 in [3]; 6.59 in [4]; 6.86 in data set [9].

Consider `Nc1nccc(-c2c[nH]c3nccc(Oc4cccc(Cl)c4)c23)n1` [I-2, 4-(4-(3-chlorophenoxy)-1H-pyrrolo[2,3-b]pyridin-3-yl)pyrimidin-2-amine], for which the pIC50 was 7.96 in data set [7]; 7.80 in [2]; 8.05 in data set [8]; 8.10 in data set [3]; 6.06 in data set [4]; 6.09 in data set [9].

For the molecule `Nc1nccc(-c2c[nH]c3nccc(Oc4cc(F)cc(F)c4)c23)n1` [I-4, 4-(4-(3,5-difluorophenoxy)-1H-pyrrolo[2,3-b]pyridin-3-yl)pyrimidin-2-amine], the pIC50 in data set [2] is 8.15; in data set [3] it was 8.70; in data set [4] it was 6.34.

Consider `Nc1nccc(-c2c[nH]c3nccc(Oc4cccc(C(F)(F)F)c4)c23)n1` [I-5, 4-(4-(3-(trifluoromethyl)phenoxy)-1H-pyrrolo[2,3-b]pyridin-3-yl)pyrimidin-2-amine], for which the pIC50 in data set [3] was 7.57; in data set [10] it was 7.37; in data set [11], 7.80.

In the case of `Nc1nccc(-c2c[nH]c3nccc(Oc4ccc(F)cc4)c23)n1` [I-6, 4-(4-(4-fluorophenoxy)-1H-pyrrolo[2,3-b]pyridin-3-yl)pyrimidin-2-amine], the pIC50 in data set [7] is 8.40; in [8] it was 8.30; in [9], 6.71; in data set [11], 8.52.

`CNC(=O)c1nn(C)c2c1C(C)(C)Cc1cnc(Nc3ccc(N4CCN(C)CC4)cc3)nc1-2` [Milciclib]: the pIC50 in data set [2] is 6.40; in data set [3], 6.44. Also, in [1] (mouse, in vivo), the Tmax was determined as 3.5 h. In data set [1] (mouse, in vivo, AUCinf), the AUC(0-inf) was 2980 ng·h/mL. For the same molecule, the Cmax in data set [1] (mouse, in vivo, Cmax) turned out to be 537 ng/mL.

Consider `C[C@@]1(O)CCC[C@H]1n1c(=O)c(C(F)F)cc2cnc(NC3CCN(S(C)(=O)=O)CC3)nc21` [PF-06873600, reference compound], for which the negative logarithm of the IC50 (pIC50) in data set [12] is 7.37; in [5] it was 7.19; in data set [6], 6.18; in data set [13] it was 5.25; in data set [14] it was 5.46; in data set [15] it was 5.45. Moreover, the “Caspase 3/7 activation” value in data set [13] was “no caspase 3/7 activation”. The molecule further registered a Cmax in data set [1] (setting [17]) of 196 ng/mL. The molecule further returned a T1/2 in data set [1] (setting [17]) of 2.1 h.

In the case of `CC(=O)c1c(C)c2cnc(Nc3ccc(N4CCNCC4)cn3)nc2n(C2CCCC2)c1=O` [Palbociclib], in [1] (mouse, plasma, oral, 5 mg/kg, in vivo PK comparison of CDK inhibitors, Table 13, read-out: AUCinf), the AUC(0-inf) worked out at 641 ng·h/mL. In addition, the Cmax in [1] (mouse, plasma, oral, 5 mg/kg, in vivo PK comparison of CDK inhibitors, Table 13, read-out: Cmax) was determined as 196 ng/mL. In addition, the Tmax in data set [1] (mouse, plasma, oral, 5 mg/kg, in vivo PK comparison of CDK inhibitors, Table 13, read-out: Tmax) was 2.1 h.

Regarding `CN(C)C(=O)c1cc2cnc(Nc3ccc(N4CCNCC4)cn3)nc2n1C1CCCC1` [Ribociclib], in [1] (mouse, in vivo), the Tmax worked out at 5.7 h. In data set [1] (mouse, in vivo, AUCinf), this molecule had an AUC(0-inf) of 2780 ng·h/mL. The Cmax in data set [1] (mouse, in vivo, Cmax) is 303 ng/mL.

`CNC(=O)c1cc(Oc2ccc(NC(=O)Nc3ccc(Cl)c(C(F)(F)F)c3)cc2)ccn1` [Sorafenib] showed a pIC50 in [14] (Homo sapiens) of 5.20.

On to Merioline-3, for which the pIC50 in data set [7] was 8.30; in [2], 8.15; in [8] it was 8.52; in [3] it was 8.70; in data set [4], 6.74; in data set [9], 6.89. The figures for the pIC50 in [11], in data set [16] and in data set [12] were 8.70, 8.52 and 8.70, respectively. Further, the Cmax in data set [1] (setting [17]) amounted to 178 ng/mL; in [1] (mice, IV 5 mg/kg, plasma), 5560 ng/mL; in data set [1] (mice, PO 5 mg/kg, plasma), 483 ng/mL. Further, the AUCinf was 83,600 min*ng/mL in data set [1] (mice, IV 5 mg/kg, plasma) and 4340 ng·min/mL in data set [1] (mice, PO 5 mg/kg, plasma). In addition, in data set [1] (mice, IV 5 mg/kg, plasma), the T1/2 amounted to 0.124 h. Also, the Tmax in [1] (mice, IV 5 mg/kg, plasma) came out at 0.0833 h; in data set [1] (mice, PO 5 mg/kg, plasma), 1 h.
